Assay results: PubChem BioAssay (NCI)
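How tested: cells in 96-well plates exposed to compound for 48 hours at five concentrations. Definition used: TGI = concentration required for complete inhibition of growth.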

Key:
Assay in all cases: NCI anticancer screen, dose series, 48 h
[1] = system: 786-0 renal
[2] = system: A498 renal
[3] = system: A549 NSCLC
[4] = system: ACHN renal
[5] = system: BT-549 breast
[6] = system: CAKI-1 renal
[7] = system: CCRF-CEM leukemia
[8] = system: COLO 205 colon
[9] = system: DU-145 prostate
[10] = system: EKVX NSCLC
[11] = system: HCC-2998 colon
[12] = system: HCT-116 colon
[13] = system: HCT-15 colon
[14] = system: HL-60(TB) leukemia
[15] = system: HOP-92 NSCLC
[16] = system: HS 578T breast
[17] = system: HT29 colon
[18] = system: IGROV1 ovarian
[19] = system: K-562 leukemia
[20] = system: KM12 colon
[21] = system: M14 melanoma
[22] = system: MALME-3M melanoma
[23] = system: MCF7 breast
[24] = system: MDA-MB-231 breast
[25] = system: MDA-MB-435
[26] = system: MDA-N
[27] = system: MOLT-4 leukemia
[28] = system: NCI-H226 lung
[29] = system: NCI-H23 lung
[30] = system: NCI-H460 lung
[31] = system: NCI-H522 lung
[32] = system: NCI/ADR-RES ovarian
[33] = system: OVCAR-4 ovarian
[34] = system: OVCAR-5 ovarian
[35] = system: OVCAR-8 ovarian
[36] = system: PC-3 prostate
[37] = system: RXF 393 renal
[38] = system: SF-268 CNS
[39] = system: SF-295 CNS
[40] = system: SF-539 CNS
[41] = system: SK-MEL-2 melanoma
[42] = system: SK-MEL-5 melanoma
[43] = system: SK-OV-3 ovarian
[44] = system: SN12C renal
[45] = system: SNB-19 CNS
[46] = system: SNB-75 CNS
[47] = system: SR leukemia
[48] = system: SW-620 colon
[49] = system: T-47D breast
[50] = system: TK-10 renal
[51] = system: U251 CNS
[52] = system: UACC-257 melanoma
[53] = system: UACC-62 melanoma
[54] = system: UO-31 renal
[55] = system: HOP-62 NSCLC
[56] = system: LOX IMVI melanoma
[57] = system: OVCAR-3 ovarian
[58] = system: SK-MEL-28 melanoma

Compound: O=S(=O)(Nc1ccccc1)c1ccc(-c2c3nc(c(-c4ccc(S(=O)(=O)Nc5ccccc5)cc4)c4ccc([nH]4)c(-c4ccc(S(=O)(=O)Nc5ccccc5)cc4)c4nc(c(-c5ccc(S(=O)(=O)Nc6ccccc6)cc5)c5ccc2[nH]5)C=C4)C=C3)cc1
- TGI [1]: > 31.6 µM
- TGI [2]: > 31.6 µM
- TGI [3]: > 31.6 µM
- TGI [4]: 22.4 µM
- TGI [5]: > 31.6 µM
- TGI [6]: > 31.6 µM
- TGI [7]: > 31.6 µM
- TGI [8]: > 31.6 µM
- TGI [9]: > 31.6 µM
- TGI [10]: > 31.6 µM
- TGI [11]: > 31.6 µM
- TGI [12]: > 31.6 µM
- TGI [13]: > 31.6 µM
- TGI [14]: > 31.6 µM
- TGI [15]: > 31.6 µM
- TGI [16]: > 31.6 µM
- TGI [17]: > 31.6 µM
- TGI [18]: > 100 µM
- TGI [19]: > 31.6 µM
- TGI [20]: > 31.6 µM
- TGI [21]: 23.6 µM
- TGI [22]: > 31.6 µM
- TGI [23]: > 31.6 µM
- TGI [24]: > 31.6 µM
- TGI [25]: > 31.6 µM
- TGI [26]: > 31.6 µM
- TGI [27]: > 31.6 µM
- TGI [28]: > 100 µM
- TGI [29]: > 31.6 µM
- TGI [30]: 16.2 µM
- TGI [31]: > 31.6 µM
- TGI [32]: > 31.6 µM
- TGI [33]: 24.6 µM
- TGI [34]: > 31.6 µM
- TGI [35]: > 31.6 µM
- TGI [36]: > 31.6 µM
- TGI [37]: > 31.6 µM
- TGI [38]: > 31.6 µM
- TGI [39]: > 31.6 µM
- TGI [40]: > 31.6 µM
- TGI [41]: > 31.6 µM
- TGI [42]: > 31.6 µM
- TGI [43]: > 31.6 µM
- TGI [44]: > 31.6 µM
- TGI [45]: > 31.6 µM
- TGI [46]: > 31.6 µM
- TGI [47]: > 31.6 µM
- TGI [48]: > 31.6 µM
- TGI [49]: > 31.6 µM
- TGI [50]: > 31.6 µM
- TGI [51]: > 31.6 µM
- TGI [52]: > 31.6 µM
- TGI [53]: > 31.6 µM
- TGI [54]: > 31.6 µM

Compound: O=[N+]([O-])c1ccccc1S(=O)(=O)c1cc(O)cc2c1NCCC2
- TGI [1]: 25.9 µM
- TGI [2]: 18.4 µM
- TGI [3]: > 85.9 µM
- TGI [4]: 27.4 µM
- TGI [5]: 26.3 µM
- TGI [6]: 63.3 µM
- TGI [7]: 5.6 µM
- TGI [8]: 34.3 µM
- TGI [9]: 35.7 µM
- TGI [10]: 30.7 µM
- TGI [11]: 51.1 µM
- TGI [12]: 20.9 µM
- TGI [13]: 44.4 µM
- TGI [14]: > 23 µM
- TGI [55]: 40.3 µM
- TGI [15]: 16.8 µM
- TGI [16]: > 86.7 µM
- TGI [17]: 40.9 µM
- TGI [18]: 30.8 µM
- TGI [19]: 7.54 µM
- TGI [20]: 34.3 µM
- TGI [56]: 38.4 µM
- TGI [21]: 30.8 µM
- TGI [22]: 37.9 µM
- TGI [23]: 29.8 µM
- TGI [24]: 32.4 µM
- TGI [25]: 41.4 µM
- TGI [26]: 38.8 µM
- TGI [27]: 13.6 µM
- TGI [28]: 62.8 µM
- TGI [29]: 49 µM
- TGI [30]: 53 µM
- TGI [31]: 24.5 µM
- TGI [32]: > 79.3 µM
- TGI [57]: 18.1 µM
- TGI [33]: 29.3 µM
- TGI [34]: 40 µM
- TGI [35]: 41.6 µM
- TGI [36]: 28.7 µM
- TGI [37]: 31.7 µM
- TGI [38]: 42.6 µM
- TGI [39]: > 59.1 µM
- TGI [40]: 34.8 µM
- TGI [41]: 51.7 µM
- TGI [58]: 33.9 µM
- TGI [42]: 27.1 µM
- TGI [43]: > 31.6 µM
- TGI [44]: 41.5 µM
- TGI [45]: 65.6 µM
- TGI [46]: 33.5 µM
- TGI [47]: 5.37 µM
- TGI [48]: 32.6 µM
- TGI [49]: 24.1 µM
- TGI [50]: 36.7 µM
- TGI [51]: 40.1 µM
- TGI [52]: 26.8 µM
- TGI [53]: 28.9 µM
- TGI [54]: 29.8 µM

Compound: COc1cc(S(=O)(=O)Nc2nc(-c3ccc(N=Cc4cccs4)cc3)cs2)ccc1Cl
- TGI [1]: > 100 µM
- TGI [2]: > 100 µM
- TGI [3]: > 100 µM
- TGI [4]: > 100 µM
- TGI [5]: > 100 µM
- TGI [6]: > 100 µM
- TGI [7]: > 100 µM
- TGI [8]: > 100 µM
- TGI [9]: > 100 µM
- TGI [10]: > 100 µM
- TGI [11]: > 100 µM
- TGI [12]: > 100 µM
- TGI [13]: > 100 µM
- TGI [14]: > 100 µM
- TGI [55]: > 100 µM
- TGI [15]: > 100 µM
- TGI [16]: > 100 µM
- TGI [17]: > 100 µM
- TGI [18]: > 100 µM
- TGI [19]: > 100 µM
- TGI [20]: > 100 µM
- TGI [56]: > 100 µM
- TGI [21]: > 100 µM
- TGI [22]: > 100 µM
- TGI [23]: > 100 µM
- TGI [24]: > 100 µM
- TGI [25]: > 100 µM
- TGI [26]: > 100 µM
- TGI [27]: 98.7 µM
- TGI [28]: > 100 µM
- TGI [29]: > 100 µM
- TGI [30]: > 100 µM
- TGI [31]: > 100 µM
- TGI [32]: > 100 µM
- TGI [57]: 78.6 µM
- TGI [33]: > 100 µM
- TGI [34]: > 100 µM
- TGI [35]: > 100 µM
- TGI [36]: > 100 µM
- TGI [37]: 49.6 µM
- TGI [38]: > 100 µM
- TGI [39]: > 100 µM
- TGI [40]: > 100 µM
- TGI [41]: > 100 µM
- TGI [58]: > 100 µM
- TGI [42]: > 100 µM
- TGI [43]: > 100 µM
- TGI [44]: 64.1 µM
- TGI [45]: > 100 µM
- TGI [46]: > 100 µM
- TGI [47]: 57 µM
- TGI [48]: > 100 µM
- TGI [49]: > 100 µM
- TGI [50]: > 100 µM
- TGI [51]: > 100 µM
- TGI [52]: > 100 µM
- TGI [53]: 48.7 µM
- TGI [54]: > 100 µM
